Test results reported in patent publication US20040077092A1, “Control and calibration material for blood coagulation tests” (priority 2002, published 2004).

Experiments:
Format in all cases: biochemical
[1] = tested on: Citrate plasma that was obtained from rabbits; assay: Prothrombin time test, CoaguChek Pro; prolongation substance added to plasma before lyophilization; conditions: lyophilized, rehydrated with distilled water, PT
Method: Production and Use of the Inventive Control and Calibration Material for the Product CoaguChek® Pro (test for determining the prothrombin time) from Roche Diagnostics
Effect of the Prolongation Substance when Added to Plasma for the Production of the Control and Calibration Material.
Citrate plasma that was obtained from rabbits was processed further as follows.
A portion of the citrate plasma is left untreated and filled in 3.0 ml portions into siliconized vessels and lyophilized. The remainder of the plasma is used to produce preparations to which 2.0%, 3.5% and 5.0% urea (in each case % by weight) is added in each case to the plasma as the prolongation substance. These mixtures are also filled in 3.0 ml portions and lyophilized.
After rehydration of the individual preparations with distilled water, the samples obtained in this manner are added dropwise to test cards of the CoaguChek® Pro from Roche Diagnostics and the seconds which elapse until the onset of coagulation is determined on the accompanying measuring instrument CoaguChek® Pro.

[2] = tested on: Commercial control material level 1 for the CoaguChek system; assay: Prothrombin time test, CoaguChek system; prolongation substance in the rehydration solution; conditions: PT
Description: Effect of the Prolongation Substance when Added to the Rehydration Solution
[…] These solutions are subsequently measured with the CoaguChek® system (test plus measuring instrument).

[3] = tested on: control plasma "PreClot I/II"; assay: aPTT (activated partial thromboplastin time), PTT a reagent, ball coagulometer KC10A
Method: Effect of the Inventive Prolongation Substances when Added to Control Plasmas to Monitor the Determination of aPTT (activated partial thromboplastin time)
The control plasma “PreClot I/II” from Roche Diagnostics is rehydrated according to the instructions of the manufacturer with aqueous solutions in which 0%, 2.0%, 3.5% and 5.0% N-methyl urea (in each case % by weight) are dissolved. The “PTT a reagent for the automated and manual determination of the activated partial thromboplastin time” from Roche Diagnostics is used to determine the clotting time in seconds in the control solutions obtained in this manner on a ball coagulometer KC10A from the Amelung Company (Germany).
The experimental protocol is the same as described in example 2a).
The only amendment was that the following concentrations of guanidine hydrochloride were added to the rehydration solution (in each case % by weight): 0%, 0.5% 1.0% and 1.5%.

[4] = tested on: lyophilized control plasma "ACT quality control CoaguChek Pro system level 1"; assay: Activated clotting time (ACT), ACT test cassettes of the CoaguChek Pro system
Method: Effect of the Prolongation Substances According to the Invention when Added to Control Plasmas to Monitor the Determination of the Activated Clotting Time (ACT)
The lyophilized control plasma “ACT quality control CoaguChek® Pro system level 1” from Roche Diagnostics was rehydrated with the supplied rehydration solution according to the instructions of the manufacturer. 0%, 0.25%, 0.5% and 0.75% guanidine hydrochloride (in each case % by weight) were added to these solutions.

[5] = 0.5 % by weight guanidine in the rehydration solution

Question: With NC(N)=O [urea] as the molecule, how does the “time until the onset of coagulation” value ([1]; 2.0 % by weight urea added to rabbit citrate plasma) read?
Answer: 22.9 s

Question: What about the “time until the onset of coagulation” value ([1]; 3.5 % by weight urea added to rabbit citrate plasma) of the same molecule?
Answer: 29.6 s

Question: What about the “time until the onset of coagulation” value ([1]; 5.0 % by weight urea added to rabbit citrate plasma) of the same molecule?
Answer: 41.2 s

Question: What about the “time until the onset of coagulation” value ([2]; 2.0 % by weight urea in the rehydration solution) of the same molecule?
Answer: 19.3 s

Question: And the “time until the onset of coagulation” value ([2]; 3.0 % by weight urea in the rehydration solution)?
Answer: 28.1 s

Question: And the “time until the onset of coagulation” value ([2]; 4.0 % by weight urea in the rehydration solution)?
Answer: 32.2 s

Question: And the “time until the onset of coagulation” value ([2]; 5.0 % by weight urea in the rehydration solution)?
Answer: 37.8 s

Question: How did the “time until the onset of coagulation” value [3, 5] turn out when Cl.N=C(N)N [guanidine, guanidine hydrochloride] was run?
Answer: 33.1 s

Question: What about the “time until the onset of coagulation” value ([3]; 1.0 % by weight guanidine in the rehydration solution) of the same molecule?
Answer: 41.9 s

Question: What about the “time until the onset of coagulation” value ([3]; 1.5 % by weight guanidine in the rehydration solution) of the same molecule?
Answer: 51.8 s

Question: And the “time until the onset of coagulation” value ([4]; 0.25 % by weight guanidine in the rehydration solution)?
Answer: 175.6 s

Question: And the “time until the onset of coagulation” value [4, 5]?
Answer: 223.4 s

Question: What about the “time until the onset of coagulation” value ([4]; 0.75 % by weight guanidine in the rehydration solution) of the same molecule?
Answer: 305.6 s

Question: What does the source list for CNC(N)=O [N-methyl-urea]?
Answer: time until the onset of coagulation ([3]; 2.0 % by weight N-methyl-urea in the rehydration solution): 34.0 s; time until the onset of coagulation ([3]; 3.5 % by weight N-methyl-urea in the rehydration solution): 38.6 s; time until the onset of coagulation ([3]; 5.0 % by weight N-methyl-urea in the rehydration solution): 44.0 s
